The results in this text go back to patent US7329686B2, “Substituted thiophene compounds” (AstraZeneca AB, priority 2002, dated 2008).

One assay addresses T1, Nitric oxide synthase (Mus musculus, UniProt P29477).
T1 construct: endogenous in cells; host or cells: J774A-1 murine macrophage cell line, induced with LPS and IFN-gamma; crude lysate
The assay is described as follows: Screen 1: nitric oxide synthase inhibition, 3H-L-arginine to 3H-L-citrulline conversion, lysate of induced J774A-1 cells. It is filed as biochemical. The note with it: enzyme from LPS/IFNg-induced murine macrophage cell line J774A-1; 1 hour at room temperature. The procedure:
The activity of compounds of formula (I), or a pharmaceutically acceptable salt, enantiomer or racemate thereof, may be screened for nitric oxide synthase inhibiting activity by a procedure based on that of Förstermann et al., Eur. J. Pharm., 1992, 225, 161-165. Nitric oxide synthase converts ^3H-L-arginine into ^3H-L-citrulline which can be separated by cation exchange chromatography and quantified by liquid scintillation counting.
Enzyme is prepared, after induction, from the cultured murine macrophage cell line J774A-1 (obtained from the laboratories of the Imperial Cancer Research Fund). J774A-1 cells are cultured in Dulbeccos Modified Eagles Medium (DMEM) supplemented with 10% foetal bovine serum, 4 mM L-glutamine and antibiotics (100 units/ml penicillin G, […] streptomycin & […] amphotericin B). Cells are routinely grown in […] flasks containing 35 ml medium kept at 37° C. and in a humidified atmosphere containing 5% CO2. […]
Labelled L-citrulline is separated from labelled L-arginine using Dowex AG-50W. […] After allowing the samples to dry the L-citrulline is quantified by scintillation counting.
In a typical experiment basal activity is 300 dpm per 75 μl sample which is increased to 1900 dpm in the reagent controls. […] Compounds are tested at a range of concentrations and from the inhibitions obtained IC50 values are calculated. […]

Another assay has as its target T2, Recombinant human iNOS (Homo sapiens, UniProt P35228).
T2 construct: made in house; host or cells: E. coli (lysate)
The assay is described as follows: Screen 2: recombinant human NO synthase inhibition, L-[3H]citrulline formation. The format is biochemical. To be noted: recombinant human iNOS expressed in E. coli; 60 min pre-incubation with NADPH. The protocol:
Recombinant human NO synthases (iNOS, eNOS & nNOS) were expressed in E. coli and lysates were prepared in Herpes buffer (pH 7.4) containing co-factors (FAD, FMN, H4B), protease inhibitors, lysozyme and the detergent, CHAPS. These preparations were used, at suitable dilution, to assess inhibition of the various isoforms. Inhibition of NOS was determined by measuring the formation of L-[^3H]citrulline from L-[^3H]arginine using an adaptation of the method of Förstermann et al.^9 Enzyme assays were performed in the presence of 3 μM [^3H]arginine, 1 mM NADPH and other co-factors required to support NOS activity (FAD, FMN, H4B, calmodulin, Ca^2+). […] Incubations continued for a further 60 min before the assays were quenched and [^3H]citrulline separated from unreacted substrate by chromatography on Dowex-50W resin in a 96-well format.

For assay [1], the target named is T3, human form of induced nitric oxide synthase (Homo sapiens, UniProt P35228).
T3 construct: Nitric oxide synthase was induced in cells by addition of medium containing human recombinant gamma-IFN; endogenous in cells; host or cells: DLD-1 human colorectal carcinoma cells (ECACC 90102540), induced with IFN-gamma, TNF-alpha, IL-6 and IL-1-beta
In words: Screen 3: nitrite accumulation in cytokine-induced DLD-1 cells (Griess reagent). The format is cell-based. The note with it: DLD-1 human colorectal carcinoma cells, nitrite accumulation over 5 hours. The protocol:
The human colorectal carcinoma cell line, DLD-1 (obtained from the European Collection of Animal Cell Culture—cell line number 90102540) was routinely grown in RPMI 1640 supplemented with 10% (v/v) foetal bovine serum, and 2 mM L-glutamine, at 37° C. in 5% CO2. Nitric oxide synthase was induced in cells by addition of medium containing human recombinant gamma-IFN (1000 units/ml), TNF-alpha (200 U/ml), IL-6 (200 U/ml) and IL-1-beta (250 U/ml). After incubation for 18 hours at 37° C., the medium was removed and the cells washed with warm phosphate buffered saline. Cells were incubated for a further 5 hours at 37° C./5% CO2 in RPMI 1640 containing 100 μM L-arginine and 100 μM verapamil-HCl in the presence and absence of test compounds. Nitrite accumulation was determined by mixing an equal volume of culture media with Griess reagent (10 mg/ml sulphanilamide, 1 mg N-(1-naphthyl)ethylenediamine in 1 ml 2.5% (v/v) phosphoric acid). Inhibition in the presence of compounds was calculated relative to the nitrite levels produced by untreated cells. IC50 values were estimated from a semi-log plot of % inhibition versus concentration of compound.
(Nitrite, measured by Griess reagent, commonly stands in for NO production.)

Broadly, the IC50 is the concentration that gives 50% inhibition.

Structures can show the parent of a compound that is named as a salt. Where only a bound is given, the exact number is not on record here.

Consider `Cc1cc(S[C@H](CN)c2ccccc2)c(C#N)s1` [Example 1, 3-[[(1S)-2-Amino 1-phenylethyl]thio]-5-methyl-2-thiophenecarbonitrile oxalate], for which the half-maximal inhibitory concentration (IC50) at Nitric oxide synthase was less than 10 µM; on Recombinant human iNOS, less than 10 µM; in assay [1], less than 100 µM.
